US4424223A, “Polycyclic compounds containing a double bond in the D-ring pharmaceutical compositions containing them, and methods of treating psoriasis with them” (Richter Gedeon Vegyeszeti Gyar RT, priority 1981, dated 1984)
Where a name gives a salt, the structure may show the parent alone. One block for each compound: values may come before it.

Key:
psoriasis [1] = test: Clinical test of topical creams on patients suffering from psoriasis (plaque method); type: in vivo, patients (human); settings: cream with 2% active ingredient, scale 0-3
Protocol: The first clinical tests were carried out with preparations for topical use, e.g. ointments, creams, solutions, tinctures, pastes, aerosols, etc. containing the new compound according to the invention as an active ingredient. More particularly, creams containing 2%, 1%, 0.5%, 0.25% and […], resp. of 17,18-dehydro-apovincaminol-3',4',5'-trimethoxy-benzoate were employed.
Clinical tests were performed on patients suffering from psoriasis. During the tests the patients have not received any systemic, e.g. immunosuppressive, cytostatic or glucocorticoid treatment for their basic disease.
Groups of 5 were examined by the so-called plaque method. One side of symmetrical skin lesions was treated by a creme containing the active ingredient in the desired concentration, while on the other side a placebo was applied. The remaining psoriatic sites on the skin were subjected to other topical treatments for example with ointments containing flumethasone pivalate and salicylic acid, as active ingredient, which are widely used for the treatment of psoriasis.
The tests were started with creams having a higher active ingredient concentration and then further patients were treated with preparations containing the smallest effective active ingredient concentration.
The efficiency was evaluated upon observing three symptoms: inflammation, infiltration and desquamation (peeling). The intensity of the symptoms was qualified by scores between 0 and 3. The total number of scores served as a measure of the reduction of symptoms. The results were evaluated by methods of mathematical statistics. During the treatment undesirable side effects have never been observed.
Evaluations were made before the treatment (I), after a one-week treatment (II) and after a two-week treatment (III). The results set forth in the following table are the average number of scores (total number of scores/number of patient) for creams containing 2% of active ingredient.

[2] = test system: phosphodiesterase isolated from rat brain; test: Inhibition of phosphodiesterase isolated from rat brain (radioisotopic, 3H-c-AMP); type: biochemical; settings: for effect of the test compound on enzyme activity: 20 minutes incubation; for IC50: rat brain, read off from curve, 50% decrease of enzyme activity, read-out: I50 on phosphodiesterase
Protocol: (§1) The model experiments were performed by means of phosphodiesterase isolated from animal tissues (rat brain, cattle brain, cattle heart). The enzyme was isolated by the technique of J. Schro/ der and H. V. Richenberg [Biochem. Biophys. Acta 302, 50 (1973)] whereupon the phosphodiesterase isolated was purified according to the method of J. G. Hardman and E. W. Sutherland [J. Biol. Chem. 240, 3704 (1965)] and the activity of the purified enzyme was measured by a radioisotopic method developed by G. Po/ ch, in the presence of an excess amount of c-AMP tricium-labeled (10.1 mmoles of a c-AMP substrate containing 2.59K Bq of 3H-c-AMP), in an incubator. The measurement was first carried out without the inhibitory substance and then in the presence of 17,18-dehydro-apivincaminol-3',4',5'-trimethoxy-benzoate as an inhibitor agent, after an incubation time of 20 minutes [N.S. Arch. Pharmacol. 268, 272 (1971)]. From the test compound a 1 mmole stock solution was prepared with aqueous hydrochloric acid solution and different amounts of the stock solution were added to the enzyme preparates corresponding to 5×10^-6, 1×10^-5 and 5×10^-5 mole/lit. of the test compound. A solution of papaverine used as reference compound is added to the enzyme preparate in an analogous manner.
The activity of the solutions containing 17,18-dehydro-apovincaminol-3',4',5'-trimethoxy-benzoate and papaverine was expressed in percents of the control (enzyme solution without any inhibitory substance, 100%). The results obtained on an enzyme isolated from rat brain are as follows:
(§2) The tests on an enzyme isolated from cattle brain and cattle heart, resp. were carried out in an analogous way.

[3] = test system: phosphodiesterase isolated from cattle heart; test: Inhibition of phosphodiesterase isolated from cattle heart (radioisotopic, 3H-c-AMP); type: biochemical; settings: for IC50: cattle heart, read off from curve, 50% decrease of enzyme activity, read-out: I50 on phosphodiesterase
Protocol: as §1, §2

[4] = test system: phosphodiesterase isolated from cattle brain; test: Inhibition of phosphodiesterase isolated from cattle brain (radioisotopic, 3H-c-AMP); type: biochemical; settings: for IC50: cattle brain, read off from curve, 50% decrease of enzyme activity, read-out: I50 on phosphodiesterase
Protocol: as §1, §2

psoriasis [5] = settings: phosphodiesterase inhibitor; Voorhees et al., Arch. Derm. 104, 359 (1971); cited from earlier work
[6] = rat brain enzyme, 1 × 10^-5 mole/lit.
[7] = rat brain enzyme, 5 × 10^-5 mole/lit.
[8] = rat brain enzyme, 5 × 10^-6 mole/lit.

times more effective than papaverine ([2]; rat brain enzyme, versus papaverine): 7 times | times more effective than papaverine ([3]; cattle heart enzyme, versus papaverine): 18 times | times more effective than papaverine ([4]; cattle brain enzyme, versus papaverine): 6 times
SMILES: CC[C@]12C=CCN3CCc4c(n(c5ccccc45)C(COC(=O)c4cc(OC)c(OC)c(OC)c4)=C1)[C@@H]32 [17,18-Dehydro-apovincaminol-3',4',5'-trimethoxy-benzoate]
Average number of scores, Desquamation (psoriasis [1]; I: before the treatment): 2.0 scores | Average number of scores, Infiltration (psoriasis [1]; I: before the treatment): 2.6 scores | Average number of scores, Inflammation (psoriasis [1]; I: before the treatment): 2.8 scores | Average number of scores, Desquamation (psoriasis [1]; II: after one-week treatment): 0.8 scores | Average number of scores, Infiltration (psoriasis [1]; II: after one-week treatment): 1.6 scores | Average number of scores, Inflammation (psoriasis [1]; II: after one-week treatment): 2.2 scores | Average number of scores, Desquamation (psoriasis [1]; III: after two-week treatment): 0.2 scores | Average number of scores, Infiltration (psoriasis [1]; III: after two-week treatment): 0.6 scores | Average number of scores, Inflammation (psoriasis [1]; III: after two-week treatment): 1.6 scores

effect of the test compound on enzyme activity [2, 6]: 40.7 % of the control | effect of the test compound on enzyme activity [2, 7]: 38.6 % of the control | effect of the test compound on enzyme activity [2, 8]: 84.7 % of the control | IC50 [2]: 10 µM | IC50 [3]: 3 µM | IC50 [4]: 15 µM
SMILES: CC[C@]12C=CCN3CCc4c(n(c5ccccc45)C(COC(=O)c4cc(OC)c(OC)c(OC)c4)=C1)[C@@H]32 [17,18-dehydro-apovincaminol-3',4',5'-trimethoxy-benzoate.HCl]

SMILES: COc1ccc(Cc2nccc3cc(OC)c(OC)cc23)cc1OC [papaverine.HCl, papaverine, reference compound]
effect of the test compound on enzyme activity [2, 6]: 89.7 % of the control | effect of the test compound on enzyme activity [2, 7]: 60.5 % of the control | effect of the test compound on enzyme activity [2, 8]: 91.2 % of the control | IC50 [2]: 70 µM | IC50 [3]: 50 µM | IC50 [4]: 90 µM

SMILES: COc1ccc(Cc2nccc3cc(OC)c(OC)cc23)cc1OC [papaverine]
effect on psoriasis (psoriasis [5]): successfully influenced psoriasis
